Biological target: T1, recombinant human secreted phospholipase A2 (Homo sapiens, UniProt P14555)
T1 sequence (P14555 21-144): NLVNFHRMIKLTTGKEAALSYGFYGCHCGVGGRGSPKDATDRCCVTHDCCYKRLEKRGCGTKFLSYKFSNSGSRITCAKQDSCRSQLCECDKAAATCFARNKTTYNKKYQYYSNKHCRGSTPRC
Test: Chromogenic assay for inhibitors of recombinant human secreted phospholipase A2 (Assay Example 1)
Format: biochemical
Details: compounds of formula 2; diheptanoyl thio-PC substrate, pH 7.5, absorbance at 405 nm
From the text: The following chromogenic assay procedure was used to identify and evaluate inhibitors of recombinant human secreted phospholipase A2. The assay described herein has been adapted for high volume screening using 96 well microtiter plates. A general description of this assay method is found in the article, “Analysis of Human Synovial Fluid Phospholipase A2 on Short Chain Phosphatidylcholine-Mixed Micelles: Development of a Spectrophotometric Assay Suitable for a Microtiterplate Reader”, by Laure J. Reynolds, Lori L. Hughes, and Edward A Dennis, Analytical Biochemistry, 204, pp. 190-197, 1992 (the disclosure of which is incorporated herein by reference):
Bovine Serum Albumin (fatty acid free) (1 g/L)
(Sigma A-7030, product of Sigma Chemical Co. St. Louis Mo., USA) […]
pH 7.5 (adjust with NaOH)
Adjust pH to 4.5 with acetic acid
5,5′-dithiobis-2-nitrobenzoic acid
Racemic Diheptanoyl Thio—PC racemic 1,2-bis(heptanoylthio)-1,2-dideoxy-sn-glycero-3-phosphorylcholine TRITON X-100™ prepare at 6.249 mg/ml in reaction buffer to equal […]
TRITON X-100™ is a polyoxy ethylene non-ionic
A measured volume of racemic dipheptanoyl thio PC supplied in chloroform at a concentration of 100 mg/ml is taken to dryness and redissolved in 10 millimolar TRITON X-100™ nonionic detergent aqueous solution. Reaction Buffer is added to the solution, then DTNB to give the Reaction Mixture.
The reaction mixture thus obtained contains 1 mM diheptanoly thio-PC substrate, 0.29 mm Triton X-100™ detergent, and 0.12 mm DTMB in a buffered aqueous solution at pH 7.5.
1. Add 0.2 ml reaction mixture to all wells;
2. Add 10 ul test compound (or solvent blank) to appropriate wells, mix 20 seconds;
3. Add 50 nanograms of sPLA2 (10 microliters) to appropriate wells;
4. Incubate plate at 40° C. for 30 minutes;
5. Read absorbance of wells at 405 nanometers with an automatic plate reader.
All compounds were tested in triplicate. Typically, compounds were tested at a final concentration of 5 ug/ml. […] Lack of color development at 405 nanometers evidenced inhibition. Compounds initially found to be active were reassayed to confirm their activity and, if sufficiently active, IC50 values were determined. […] In all cases, % inhibition measured at 405 nanometers generated by enzyme reactions containing inhibitors relative to the uninhibited control reactions was determined. Each sample was titrated in triplicate and result values were averaged for plotting and calculation of IC50 values. IC50 were determined by plotting log concentration versus inhibition values in the range from 10-90% inhibition.

**Q.** How did the IC50 turn out when `NC(=O)COc1cccc2c1c1c(C(N)=O)cccc1n2Cc1ccccc1` [Compound 2a, [[5-Carbamoyl-9-(phenylmethyl)carbazol-4-yl]oxy]acetamide] was run?
**A.** 0.151 µM

**Q.** For `CCNC(=O)COc1cccc2c1c1c(C(N)=O)cccc1n2Cc1ccccc1` [Compound 2b, [[5-Carbamoyl-9-(phenylmethyl)carbazol-4-yl]oxy]-N-(ethyl)acetamide], which IC50 is on record?
**A.** 0.273 µM

Same assay, conditions: compounds of formula 3; diheptanoyl thio-PC substrate, pH 7.5, absorbance at 405 nm

**Q.** Which IC50 does the source give for `COC(=O)C[C@H](NC(=O)COc1cccc2c1c1c(C(N)=O)cccc1n2Cc1ccccc1)C(=O)OC` [Compound 3d, N-[[[5-Carbamoyl-9-(phenylmethyl)carbazol-4-yl]oxy]acetyl]-L-aspartic Acid Dimethyl Ester] here?
**A.** 0.513 µM

**Q.** With `COC(=O)[C@H](C)NC(=O)COc1cccc2c1c1c(C(N)=O)cccc1n2Cc1ccccc1` [Compound 3b, N-[[[5-Carbamoyl-9-(phenylmethyl)carbazol-4-yl]oxy]acetyl]-L-alanine Methyl Ester] as the molecule, how does the IC50 read?
**A.** 0.205 µM

**Q.** `COC(=O)CC[C@H](NC(=O)COc1cccc2c1c1c(C(N)=O)cccc1n2Cc1ccccc1)C(=O)OC` [Compound 3e, N-[[[5-Carbamoyl-9-(phenylmethyl)carbazol-4-yl]oxy]acetyl]-L-glutamic Acid Dimethyl Ester] was tested. Which IC50 did it give?
**A.** 0.709 µM

**Q.** How did the IC50 turn out when `COC(=O)[C@H](CCSC)NC(=O)COc1cccc2c1c1c(C(N)=O)cccc1n2Cc1ccccc1` [Compound 3f, N-[[[5-Carbamoyl-9-(phenylmethyl)carbazol-4-yl]oxy]acetyl]-L-methionine Methyl Ester] was run?
**A.** 0.263 µM

**Q.** For `COC(=O)[C@H](CC(C)C)NC(=O)COc1cccc2c1c1c(C(N)=O)cccc1n2Cc1ccccc1` [Compound 3c, N-[[[5-Carbamoyl-9-(phenylmethyl)carbazol-4-yl]oxy]acetyl]-L-leucine Methyl Ester], which IC50 is on record?
**A.** 0.0675 µM

**Q.** Which IC50 does the source give for `COC(=O)CNC(=O)COc1cccc2c1c1c(C(N)=O)cccc1n2Cc1ccccc1` [Compound 3a, N-[[[5-Carbamoyl-9-(phenylmethyl)carbazol-4-yl]oxy]acetyl]glycine methyl ester] here?
**A.** 0.383 µM

**Q.** How did the IC50 turn out when `COC(=O)[C@H](Cc1ccccc1)NC(=O)COc1cccc2c1c1c(C(N)=O)cccc1n2Cc1ccccc1` [Compound 3g, N-[[[5-Carbamoyl-9-(phenylmethyl)carbazol-4-yl]oxy]acetyl]-L-phenylalanine Methyl Ester] was run?
**A.** 8.6 µM

Same assay, conditions: compounds of formula 4; diheptanoyl thio-PC substrate, pH 7.5, absorbance at 405 nm

**Q.** Which IC50 does the source give for `NC(=O)c1cccc2c1c1c(OCC(=O)N[C@@H](Cc3ccccc3)C(=O)O)cccc1n2Cc1ccccc1` [Compound 4g, N-[[[5-Carbamoyl-9-(phenylmethyl)carbazol-4-yl]oxy]acetyl]-L-phenylalanine] here?
**A.** 0.324 µM

**Q.** For `NC(=O)c1cccc2c1c1c(OCC(=O)N[C@@H](CCC(=O)O)C(=O)O)cccc1n2Cc1ccccc1` [Compound 4e, N-[[[5-Carbamoyl-9-(phenylmethyl)carbazol-4-yl]oxy]acetyl]-L-glutamic Acid], which IC50 is on record?
**A.** 0.0612 µM

**Q.** With `NC(=O)c1cccc2c1c1c(OCC(=O)N[C@@H](CC(=O)O)C(=O)O)cccc1n2Cc1ccccc1` [Compound 4d, N-[[[5-Carbamoyl-9-(phenylmethyl)carbazol-4-yl]oxy]acetyl]-L-aspartic Acid] as the molecule, how does the IC50 read?
**A.** 0.0992 µM

**Q.** Which IC50 does the source give for `NC(=O)c1cccc2c1c1c(OCC(=O)NCC(=O)O)cccc1n2Cc1ccccc1` [Compound 4a, N-[[[5-Carbamoyl-9-(phenylmethyl)carbazol-4-yl]oxy]acetyl]glycine] here?
**A.** 0.118 µM

**Q.** For `CC(C)C[C@H](NC(=O)COc1cccc2c1c1c(C(N)=O)cccc1n2Cc1ccccc1)C(=O)O` [Compound 4c, N-[[[5-Carbamoyl-9-(phenylmethyl)carbazol-4-yl]oxy]acetyl]-L-leucine], which IC50 is on record?
**A.** 0.0161 µM

**Q.** Which IC50 does the source give for `CSCC[C@H](NC(=O)COc1cccc2c1c1c(C(N)=O)cccc1n2Cc1ccccc1)C(=O)O` [Compound 4f, N-[[[5-Carbamoyl-9-(phenylmethyl)carbazol-4-yl]oxy]acetyl]-L-methionine] here?
**A.** 0.103 µM

From US20030096854A1, “Substituted tricyclics” (priority 2002, published 2003)
